Common to all, as to format: cell-based
Experiment [1] concerns MDA-MB-231 (breast cancer). The experiment in a line: MTT antiproliferative assay, MDA-MB-231. Conditions: Homo sapiens, MDA-MB-231, 10 μM, 48 or 72 h, read-out: inhibition of cell growth, MDA-MB-231. How it is done:
(§1) The antiproliferative activity of a test compound was determined in cell lines: MDA-MB-231 (breast cancer), HepG2 (liver cancer), SW620 (colon cancer), A375 (malignant melanoma), A431 (epidermoid carcinoma), A549 (lung adenocarcinoma), and HeLa ([…]). MDA-MB-231, HepG2, SW480, SW620, A375, and A431 cells were cultured in Dulbecco's modified Eagle's medium (DMEM) containing 10% fetal bovine serum (FBS). HeLa cells were cultured in MEM/EBSS (MEM) containing 10% FBS. A549 cells were maintained in Kaighn's modification of Ham's F-12 medium containing 10% FBS. The colorimetric MTT (3-(4,5-dimethylthiazol-2-yl)-2,5-diphenyltetrazolium bromide) assay was used to measure the cell viability of different cells following treatment with the test compound.
(§2) Briefly cells were seeded in a 96 well plate at a density of 2,000-5,000 cells/well. Following attachment, the cells were treated with the test compound in media at various concentrations ranging from 0.137 to 100 μM or at a single concentration of 10 μM. After the cells were incubated at 37° C. for 48 or 72 h, MTT (20 μL, 5 mg/mL in PBS) was added to each well and the cells were incubated for another 4 h at 37° C. The supernatant was removed carefully and 150 μL of DMSO was added to each well to dissolve the MTT formazan crystals. The plate was shaken for 15-20 min and the absorbance value of each well was determined using a multi-well plate reader at 490 nm. The wells treated with DMSO were taken as a vehicle control. Data were also obtained similarly for all the replicates and the percentage viability was determined with respect to the DMSO-treated cells. The results are summarized in Table 1 below, wherein A represents no less than 80% inhibition of cell growth at 10 μM; B represents no less than 50% but less than 80% inhibition of cell growth at 10 μM; C represents no less than 30% but less than 50% inhibition of cell growth at 10 μM; and D represents less than 30% inhibition of cell growth at 10 μM.
Background: Tetrazolium dyes change colour on reduction, which living cells bring about.

The subject of another experiment is HepG2 (liver cancer). The experiment in a line: MTT antiproliferative assay, HepG2. The note with it: Homo sapiens, HepG2, 10 μM, 48 or 72 h, read-out: inhibition of cell growth, HepG2. How it is done: as §1, §2
For experiment [2], the system named is A375 (malignant melanoma). The experiment in a line: MTT antiproliferative assay, A375. Conditions: Homo sapiens, A-375, A375, 10 μM, 48 or 72 h, read-out: inhibition of cell growth, A375. How it is done:
as §1, §2

In experiment [3] the test system is A549 (lung adenocarcinoma). The experiment in a line: MTT antiproliferative assay, A549. The note with it: Homo sapiens, A549, 10 μM, 48 or 72 h, read-out: inhibition of cell growth, A549. How it is done:
as §1, §2

Another experiment has as its system SW620 (colon cancer). The experiment in a line: MTT antiproliferative assay, SW620. The note with it: Homo sapiens, SW-620, SW620, 10 μM, 48 or 72 h, read-out: inhibition of cell growth, SW620. How it is done:
as §1, §2

The subject of experiment [4] is A431 (epidermoid carcinoma). The experiment in a line: MTT antiproliferative assay, A431. Conditions: Homo sapiens, A-431, A431, 10 μM, 48 or 72 h, read-out: inhibition of cell growth, A431. How it is done:
as §1, §2

Another experiment deals with HeLa (ovarian cancer). The experiment in a line: MTT antiproliferative assay, HeLa. Conditions: Homo sapiens, 48 or 72 h, read-out: inhibition of cell growth, HELA. How it is done:
as §1, §2

Usually inhibition stands for the drop in the measured response relative to a control, in per cent.

Structures are written as SMILES.

For `CCCC(=O)O[C@H]1C(O)C=C2C(=CC=C3[C@@]2(C)CC[C@@]2(C)[C@@H]4C[C@](C)(C(=O)OC)CC[C@]4(C)CC[C@]32C)[C@]1(C)OC` (stereo partly drawn) [Compound A25, methyl (2R,4aS,6aS,9S,10S,12bR,14aS,14bR)-10-(butyryloxy)-11-hydroxy-9-methoxy-2,4a,6a,9,12b,14a-hexamethyl-1,2,3,4,4a,5,6,6a,9,10,11,12b,13,14,14a,14b-hexadecahydropicene-2-carboxylate], the inhibition at 10 µM (in experiment [1]; in the experiment with HepG2 (liver cancer); in experiment [2]; in experiment [3]; in the experiment on SW620 (colon cancer); in experiment [4]) was under 30% each time. Also, in the experiment on HeLa (ovarian cancer), the inhibition at 10 µM was under 30%.
Turning to `CNC1(O)C(=O)C=C2C(=CC=C3[C@@]2(C)CC[C@@]2(C)[C@@H]4C[C@](C)(C(=O)OC)CC[C@]4(C)CC[C@]32C)[C@]1(C)OC` (stereo partly drawn) [Compound A26, methyl (2R,4aS,6aS,9S,12bR,14aS,14bR)-10-hydroxy-9-methoxy-2,4a,6a,9,12b,14a-hexamethyl-10-(methylamino)-11-oxo-1,2,3,4,4a,5,6,6a,9,10,11,12b,13,14,14a,14b-hexadecahydropicene-2-carboxylate], the inhibition at 10 µM in experiment [1] was 30 to 50%; in the experiment on HepG2 (liver cancer) it was 30 to 50%; in experiment [2], 30 to 50%; in experiment [3], under 30%; in the experiment on SW620 (colon cancer) it was 30 to 50%; in experiment [4] it was 30 to 50%. In addition, the inhibition at 10 µM in the experiment with HeLa (ovarian cancer) lay in the range of 30 to 50%.
As to `CCO[C@]1(C)C(=O)C(=O)C=C2C1=CC=C1[C@@]2(C)CC[C@@]2(C)[C@@H]3C[C@](C)(C(=O)O)CC[C@]3(C)CC[C@]12C` [Compound A28, (2R,4aS,6aS,9S,12bR,14aS,14bR)-9-ethoxy-2,4a,6a,9,12b,14a-hexamethyl-10,11-dioxo-1,2,3,4,4a,5,6,6a,9,10,11,12b,13,14,14a,14b-hexadecahydropicene-2-carboxylic acid], the inhibition at 10 µM in experiment [1] was in the range of 50 to 80%; in the experiment with HepG2 (liver cancer), 50 to 80%; in experiment [2], 30 to 50%; in experiment [3], 30 to 50%; in the experiment with SW620 (colon cancer), 30 to 50%; in experiment [4], 50 to 80%. In the experiment on HeLa (ovarian cancer), the inhibition at 10 µM was at least 80%.
As to `CO[C@@]1(C)C2=CC=C3[C@@](C)(CC[C@@]4(C)[C@@H]5C[C@](C)(C(=O)O)CC[C@]5(C)CC[C@]34C)C2=CC(O)C1O` (stereo partly drawn) [Compound A29, (2R,4aS,6aS,9S,12bR,14aS,14bR)-10,11-dihydroxy-9-methoxy-2,4a,6a,9,12b,14a-hexamethyl-1,2,3,4,4a,5,6,6a,9,10,11,12b,13,14,14a,14b-hexadecahydropicene-2-carboxylic acid], the inhibition at 10 µM (in experiment [1]; with HepG2 (liver cancer); in experiment [2]; in experiment [3]; in the experiment with SW620 (colon cancer); in experiment [4]) was under 30% each time. In addition, the inhibition at 10 µM in the experiment with HeLa (ovarian cancer) lay within 50 to 80%.
In the case of `CO[C@@]1(C)C2=CC=C3[C@@](C)(CC[C@@]4(C)[C@@H]5C[C@](C)(C(=O)O)CC[C@]5(C)CC[C@]34C)C2=CC(=O)/C1=C\C#N` [Compound A30, (2R,4aS,6aS,9S,10Z,12bR,14aS,14bR)-10-(cyanomethylidene)-9-methoxy-2,4a,6a,9,12b,14a-hexamethyl-11-oxo-1,2,3,4,4a,5,6,6a,9,10,11,12b,13,14,14a,14b-hexadecahydropicene-2-carboxylic acid], the inhibition at 10 µM in experiment [1] is at least 80%; in the experiment with HepG2 (liver cancer) it was at least 80%; in experiment [2] it was 50 to 80%; in experiment [3], 30 to 50%; with SW620 (colon cancer), at least 80%; in experiment [4], at least 80%. In the experiment on HeLa (ovarian cancer), the inhibition at 10 µM was at least 80%.
As to `CO[C@@]1(C)C2=CC=C3[C@@](C)(CC[C@@]4(C)[C@@H]5C[C@](C)(C(=O)O)CC[C@]5(C)CC[C@]34C)C2=CC(=O)/C1=C/C#N` [Compound A31, (2R,4aS,6aS,9S,10E,12bR,14aS,14bR)-10-(cyanomethylidene)-9-methoxy-2,4a,6a,9,12b,14a-hexamethyl-11-oxo-1,2,3,4,4a,5,6,6a,9,10,11,12b,13,14,14a,14b-hexadecahydropicene-2-carboxylic acid], the inhibition at 10 µM in experiment [1] was at least 80%; in the experiment on HepG2 (liver cancer), 50 to 80%; in experiment [2] it was 50 to 80%; in experiment [3], 50 to 80%; in the experiment on SW620 (colon cancer), at least 80%; in experiment [4] it was 50 to 80%. Besides, the inhibition at 10 µM in the experiment on HeLa (ovarian cancer) was at least 80%.
In the case of `COC(=O)[C@]1(C)CC[C@]2(C)CC[C@]3(C)C4=CC=C5C(=CC(=O)C(=O)C5(C)O)[C@]4(C)CC[C@@]3(C)[C@@H]2C1` (stereo partly drawn) [Compound A32, methyl (2R,4aS,6aS,12bR,14aS,14bR)-9-hydroxy-2,4a,6a,9,12b,14a-hexamethyl-10,11-dioxo-1,2,3,4,4a,5,6,6a,9,10,11,12b,13,14,14a,14b-hexadecahydropicene-2-carboxylate], the inhibition at 10 µM was at least 80% in experiment [1]; at least 80% in the experiment on HepG2 (liver cancer); 50 to 80% in experiment [2]; at least 80% in experiment [3]; at least 80% with SW620 (colon cancer); at least 80% in experiment [4]. The inhibition at 10 µM in the experiment with HeLa (ovarian cancer) was at least 80%.
On to `COC(=O)[C@]1(C)CC[C@]2(C)CC[C@]3(C)C4=CC=C5C(=CC(=O)/C(=C\C#N)C5(C)O)[C@]4(C)CC[C@@]3(C)[C@@H]2C1` (stereo partly drawn) [Compound A33, methyl (2R,4aS,6aS,10Z,12bR,14aS,14bR)-10-(cyanomethylidene)-9-hydroxy-2,4a,6a,9,12b,14a-hexamethyl-11-oxo-1,2,3,4,4a,5,6,6a,9,10,11,12b,13,14,14a,14b-hexadecahydropicene-2-carboxylate], for which the inhibition at 10 µM in experiment [1] is at least 80%; in the experiment with HepG2 (liver cancer) it was at least 80%; in experiment [2], 50 to 80%; in experiment [3], 30 to 50%; with SW620 (colon cancer), at least 80%; in experiment [4], 50 to 80%. The inhibition at 10 µM in the experiment on HeLa (ovarian cancer) was at least 80%.
`COC(=O)[C@]1(C)CC[C@]2(C)CC[C@]3(C)C4=CC=C5C(=CC(=O)/C(=C/C#N)C5(C)O)[C@]4(C)CC[C@@]3(C)[C@@H]2C1` (stereo partly drawn) [Compound A34, methyl (2R,4aS,6aS,10E,12bR,14aS,14bR)-10-(cyanomethylidene)-9-hydroxy-2,4a,6a,9,12b,14a-hexamethyl-11-oxo-1,2,3,4,4a,5,6,6a,9,10,11,12b,13,14,14a,14b-hexadecahydropicene-2-carboxylate]: the inhibition at 10 µM is at least 80% in experiment [1]; at least 80% with HepG2 (liver cancer); 50 to 80% in experiment [2]; 50 to 80% in experiment [3]; at least 80% in the experiment with SW620 (colon cancer); 50 to 80% in experiment [4]. Moreover, the inhibition at 10 µM in the experiment with HeLa (ovarian cancer) was at least 80%.
For the compound `COC(=O)[C@]1(C)CC[C@]2(C)CC[C@]3(C)C4=CC=C5C(=CC(=O)C(O)C5(C)O)[C@]4(C)CC[C@@]3(C)[C@@H]2C1` (stereo partly drawn) [Compound A35, methyl (2R,4aS,6aS,12bR,14aS,14bR)-9,10-dihydroxy-2,4a,6a,9,12b,14a-hexamethyl-11-oxo-1,2,3,4,4a,5,6,6a,9,10,11,12b,13,14,14a,14b-hexadecahydropicene-2-carboxylate], the inhibition at 10 µM in experiment [1] is at least 80%; in the experiment on HepG2 (liver cancer), at least 80%; in experiment [2] it was 50 to 80%; in experiment [3], at least 80%; with SW620 (colon cancer), at least 80%; in experiment [4], at least 80%. For the same compound, the inhibition at 10 µM in the experiment with HeLa (ovarian cancer) was at least 80%.

For the origin of these results see US12570687B2, “Triterpenoid compounds, pharmaceutical compositions thereof, and their use for treating a nuclear receptor subfamily 4 group a member 1-mediated disease” (NUCMITO PHARMACEUTICALS COMPANY LIMITED, priority 2019, dated 2026).
